Data: patent publication US7030108B2, “Combating Parkinson's disease-related movement disorder” (Reed Richter, priority 1999, dated 2006)

How the values were obtained:
Type in all cases: in vivo, human
[1] = tested on: Parkinsonian tremor (resting and action); test: Mirtazapine treatment of patients with Parkinsonian tremor (case reports)
Method: A patient with mild Parkinson's Disease for 4 years experienced recurrent tremor that interfered with their ability to hold and deal cards while playing bridge. […] The patient was administered mirtazapine (Remeron®, Organon) at a dosage of 30 mg per day, taken at night for concomitant depression. […] A person with a nine-year history of Parkinson's Disease characterized by bradykinesia and marked right upper extremity resting tremor was treated. […] In May 1998, they were started on mirtazapine (Remeron) at a dosage of 30 mg at night. […] No other medication had been changed.

[2] = tested on: levodopa-induced dyskinesias; test: Mirtazapine treatment of Parkinson's Disease patients with levodopa/dopamine-induced dyskinesias (case reports)
Method: A person with a 15 year history of Parkinson's Disease was treated. […] In August, 1997, the patient was started on mirtazapine (Remeron) at a dosage of 3 mg at night to aid in sleep. […] Throughout the regimen of treatment, the dose of Sinemet remained stable. […] In May 1998, they were started on mirtazapine (Remeron) at a dosage of 30 mg at night. […] No other medication had been changed.

[3] = tested on: essential tremor (action tremor); test: Treatment of patients with essential / action tremor without Parkinson's disease (case reports)
Method: A person with a 20-year history of upper extremity action tremor with a frequency of approximately 8–12 hz. The patient bad no signs or symptoms of Parkinson's disease. […] The patient was started on mirtazapine (Remeron) at a dosage of 30 mg at night.
A person with a lifelong history of action tremor and anxiety but no signs or symptoms of Parkinson's disease was treated. […] Although the tremor always improved with a decrease in the anxiety (using SSRIs and benzodiazepines) the tremor persisted at an unsatisfactory level of severity.
In March, 1998, the patient began medication with a dosage of 15 mg of mirtazapine (Remeron) at night, then on their own volition, increased the administration of the same dose of mirtazapine to twice a day (for a total dose of 30 mg).
Thus, in the patient group involved in the study of Examples 1–6, a total of fifteen individuals was treated with mirtazapine, and of such population, twelve of the patients responded well to treatment with substantial tremor reduction. Of such total of fifteen patients, eight patients had essential tremor, and five of the eight responded. […] Three patients had levodopa-induced dyskinesias and all three responded.

sedation = test: Sedation / drowsiness side effect in treated patients
Method: Two months later, the patient discontinued the administration of mirtazapine because they were oversleeping. Such oversleeping behavior was not believed to relate to the administration of mirtazapine, however. The patient in fact stopped and restarted the mirtazapine multiple times.
A person with a 15 year history of Parkinson's Disease was treated. […] In August, 1997, the patient was started on mirtazapine (Remeron) at a dosage of 3 mg at night to aid in sleep. The next morning the patient's spouse telephoned excitedly to say that the spouse had only shaken for 15 minutes. This positive development continued making their “on” time more functional.
In almost all cases, the improvement in the tremor behavior came literally overnight, that is, after an initial 30 mg dose taken in the evening before retiring. […] Patients were aware of an improvement immediately. During neurological exam, patients described the types of activities that they could perform before and after administration of mirtazapine (e.g., dealing cards, feeding oneself without spilling, being able to return to exercise classes as a consequence of the improvement experienced, etc.).

tremor = test: Patient group of Examples 1-6 treated for tremor / movement disorder (all types)
[4] = Example 3: person, 30 mg at night, no other medication changed
[5] = Example 3, mirtazapine restarted
[6] = Example 3, several months later, mirtazapine stopped
[7] = Example 5, 15 mg twice a day (total 30 mg)

**Q.** Which “patient-reported effect on resting and action tremor (holding cards)” value ([1]; Example 1: person, mild Parkinson's Disease, 30 mg per day at night, on Sinemet, within days of initial administration) does the source give for `CN1CCN2c3ncccc3Cc3ccccc3[C@H]2C1` (racemic) [mirtazapine, 1,2,3,4,10,14b-hexahydro-2-methyl-pyrazino [2,1-a]pyrido [2,3-c]benzazepine] here?
**A.** they could hold their cards without embarrassment

**Q.** And the “tremor upon reinitiated administration” value ([1]; Example 1, mirtazapine reinitiated, Sinemet dose unchanged)?
**A.** again experienced resolution of the tremors

**Q.** And the “tremor upon cessation of medication” value ([1]; Example 1, mirtazapine stopped, Sinemet dose unchanged)?
**A.** the tremor (resting and action) returned

**Q.** And the “patient-reported change in Parkinsonian tremor” value [1, 4]?
**A.** rapid improvement

**Q.** And the “tremor upon restarting medication” value [1, 5]?
**A.** both movement disorders again responded

**Q.** And the “tremor after stopping medication” value [1, 6]?
**A.** return of the tremor

**Q.** What about the “Parkinsonian resting tremor patients who responded” value ([1]; Examples 1-6, of four patients (fourth not yet returned for follow-up)) of the same compound?
**A.** three

**Q.** What about the “time the patient had shaken” value ([2]; Example 2: person, violent dyskinesias, 3 mg at night, reported the next morning) of the same compound?
**A.** 15 min

**Q.** And the “dopamine-induced dyskinesias after a new dopa agonist (ropirinole) was added” value ([2]; Example 2, six months later, Sinemet dose stable)?
**A.** no increase in dopamine-induced dyskinesias

**Q.** What about the “patient-reported change in dopamine-induced dyskinesias” value [2, 4] of the same compound?
**A.** rapid improvement

**Q.** What about the “dyskinesia upon restarting medication” value [2, 5] of the same compound?
**A.** both movement disorders again responded

**Q.** And the “dyskinesia after stopping medication” value [2, 6]?
**A.** return of the tremor and dyskinesia

**Q.** What about the “levodopa-induced dyskinesia patients who responded” value ([2]; Examples 1-6, of three patients) of the same compound?
**A.** three

**Q.** And the “postural and kinetic tremors on physical exam” value ([3]; Example 4: person, 20-year upper extremity action tremor, 30 mg at night)?
**A.** greatly reduced

**Q.** And the “patient-reported change in action tremor” value ([3]; Example 5: person, action tremor and anxiety, 15 mg twice a day (total 30 mg))?
**A.** improvement in the tremor especially when eating or drinking

**Q.** What about the clinical exam [3, 7] of the same compound?
**A.** improved marginally

**Q.** What about the handwriting [3, 7] of the same compound?
**A.** remained a problem

**Q.** And the “essential tremor patients who responded” value ([3]; Examples 1-6, of eight patients with essential tremor)?
**A.** five

**Q.** What about the sedation side effect (sedation; Example 1, patient currently remaining on mirtazapine) of the same compound?
**A.** without experiencing any sedation side effect

**Q.** What about the “drowsiness during the day” value (sedation; Example 2, 3 mg at night) of the same compound?
**A.** never reported that they were drowsy during the day

**Q.** And the sedation (sedation; patients of the above-referenced examples)?
**A.** sedation did not occur

**Q.** What about the “patients responding favorably with marked attenuation of tremor activity” value (tremor; Example 6, of ten additional patients) of the same compound?
**A.** seven

**Q.** What about the “patients responding well with substantial tremor reduction” value (tremor; Examples 1-6, of a total of fifteen individuals) of the same compound?
**A.** twelve

**Q.** And the “onset of improvement in tremor behavior” value (tremor; in almost all cases, after an initial 30 mg dose taken in the evening)?
**A.** overnight

**Q.** How did the “response of action tremor” value ([3]; Example 5 patient, before mirtazapine) turn out when `CC(C)NCC(O)COc1cccc2ccccc12` (stereo not shown) [propranolol] was run?
**A.** seemed to respond to propranolol initially
